# Read-outs that look alike come from different tables or passages of the source.
# Columns and labels:
# [1] = test system: DLD-1; test: Drug combination screen (ATPlite, Synergy Score), DLD-1
# [2] = test system: SNU-C2B; test: Drug combination screen (ATPlite, Synergy Score), SNU-C2B
# [3] = test system: SW480; test: Drug combination screen (ATPlite, Synergy Score), SW480; assay type: cell-based, human
# [4] = test system: HCT 116; test: Drug combination screen (ATPlite, Synergy Score), HCT 116
# [5] = test system: LS-411N; test: Drug combination screen (ATPlite, Synergy Score), LS-411N; assay type: cell-based, human
# [6] = compound in combination with IgG1-hDR5-01-G56T-E430G + IgG1-hDR5-05-E430G, DLD-1, 120 hour ATPlite, 6x6 matrix
# [7] = compound in combination with IgG1-hDR5-01-G56T-E430G + IgG1-hDR5-05-E430G, SNU-C2B, 72 hour ATPlite, 6x6 matrix
# [8] = compound in combination with IgG1-hDR5-01-G56T-E430G + IgG1-hDR5-05-E430G, SW480, 72 hour ATPlite, 6x6 matrix
# [9] = compound in combination with IgG1-hDR5-01-G56T-E430G + IgG1-hDR5-05-E430G, HCT 116, 120 hour ATPlite, 6x6 matrix
# [10] = compound in combination with IgG1-hDR5-01-G56T-E430G + IgG1-hDR5-05-E430G, LS-411N, 72 hour ATPlite, 6x6 matrix
SMILES,"Synergy Score DLD-1 [1, 6]","Synergy Score SNU-C2B [2, 7]","Synergy Score SW480 [3, 8]","Synergy Score HCT-116 [4, 9]","Synergy Score LS-411N [5, 10]",Synergy Score DLD-1 [1],Synergy Score SNU-C2B [2],Synergy Score SW480 [3],Synergy Score HCT-116 [4],Synergy Score LS-411N [5]
"CCc1c2c(nc3ccc(OC(=O)N4CCC(N5CCCCC5)CC4)cc13)-c1cc3c(c(=O)n1C2)COC(=O)[C@]3(O)CC [irinotecan, reference compound]",15,13.4,24.7,4.4,6.8,,,,,
N.N.[Cl][Pt][Cl] [Cisplatin],8.8,12.9,18.9,6.7,15.4,,,,,
CC(=O)Nc1nc(C)c(-c2ccc(Cl)c(S(=O)(=O)NCCO)c2)s1 [PIK-93],,,,,,1,5.1,4.1,1.2,5.2
COc1cc(C(=O)O)ccc1NC(=O)[C@@H]1N[C@@H](CC(C)(C)C)[C@](C#N)(c2ccc(Cl)cc2F)[C@H]1c1cccc(Cl)c1F [Idasanutlin],6.3,10.4,6.1,3.2,16.3,,,,,
COC1=CC(c2cc3ccccc3[nH]2)=N/C1=C\c1[nH]c(C)cc1C [Obatoclax],6.1,4.7,11.8,1.6,22.8,,,,,
CN(C)CC[C@H](CSc1ccccc1)Nc1ccc(S(=O)(=O)NC(=O)c2ccc(N3CCN(Cc4ccccc4-c4ccc(Cl)cc4)CC3)cc2)cc1[N+](=O)[O-] [ABT-737],1.5,1.1,7.5,0,4.2,,,,,
Nc1ccn([C@@H]2O[C@H](CO)[C@@H](O)C2(F)F)c(=O)n1 [Gemcitabine],20.3,18.5,31.1,12.2,5.7,,,,,
Cn1cc(C2=C(c3ccc(Cl)cc3Cl)C(=O)NC2=O)c2ccccc21 [SB-216763],0.5,0.3,1.4,0.1,1.1,,,,,
COCCNCc1ccc(-c2cc3nccc(Oc4ccc(NC(=S)NC(=O)Cc5ccc(F)cc5)cc4F)c3s2)nc1 [MGCD-265],0.2,3.1,0.5,0.1,0.7,,,,,
"CC[C@H](NC(=O)[C@H](C)NC)C(=O)N1C[C@@H](O)C[C@H]1Cc1c(-c2[nH]c3cc(F)ccc3c2C[C@@H]2C[C@H](O)CN2C(=O)[C@H](CC)NC(=O)[C@H](C)NC)[nH]c2cc(F)ccc12 [Birinapant, reference compound]",5.8,37,54.5,16.4,61.2,,,,,
C=CC(=O)Nc1ccc2ncnc(Nc3ccc(OCc4cccc(F)c4)c(Cl)c3)c2c1 [AST-1306],0.3,0.7,0.9,0.1,1.8,,,,,
CNC(=O)c1ccc(-c2cnc3ncc(Cc4ccc5ncccc5c4)n3n2)cc1F [INCB28060],0.2,0.4,0,0.1,0,,,,,
C[C@@]1(C(=O)Nc2ccc(F)nc2)CCCN1c1nc(Nc2cc(C3CC3)n[nH]2)c2cccn2n1 [BMS-754807],11.3,1.3,5.9,2.1,10.8,,,,,
C[C@H]1C[C@@H]2[C@H]([C@@H](O)C[C@@]3(C)[C@H]2CC[C@]3(O)C(=O)CO)[C@@]2(C)C=CC(=O)C=C12 [Methylprednisolone],0,0.6,0,0,0,,,,,
O=C(/C=C/c1cccc(S(=O)(=O)Nc2ccccc2)c1)NO [Belinostat],8.6,16.4,10.2,4.1,4.5,,,,,
CC1(C)CCC(c2ccc(Cl)cc2)=C(CN2CCN(c3ccc(C(=O)NS(=O)(=O)c4ccc(N[C@H](CCN5CCOCC5)CSc5ccccc5)c(S(=O)(=O)C(F)(F)F)c4)cc3)CC2)C1 [ABT-263],3.4,1,8,0,7.6,,,,,
Cc1cc(NC(=O)c2cccc(NC(=O)/C=C/CN(C)C)c2)ccc1Nc1nccc(-c2cccnc2)n1 [JNK-IN-8],0.2,1.1,0.4,0,0.1,,,,,
OCCn1cc(-c2ccc3c(c2)CC/C3=N\O)c(-c2ccncc2)n1 [GDC-0879],0.1,0.7,1.6,0.2,0.4,,,,,
CN(C)CCCn1cc(C2=C(c3c[nH]c4ccccc34)C(=O)NC2=O)c2ccccc21 [GF 109203X],,,,,,4.3,1.6,6.2,3,5.3
